1 molecule from US12497356B2, “Stable formulation of arylsulfonylpropenenitriles” (KEMIRA OYJ, priority 2019, dated 2025) can be followed below.

A short description of series [1]: Stability with different solvents (initial tests, HPLC-DAD). It is filed as physicochemical. To be noted: room temperature. As to the method: The stability of (E)-3-tosylacrylonitrile in different solvents, concentrations and temperatures was studied. The initial tests were conducted at room temperature and the tested solvents were i) propylene carbonate; ii) ethanol; iii) dimethylsulfoxide (DMSO); iv) combination of 35% ethanol-65% propylene glycol; v) water at pH 4; and water at pH 8. The amount of (E)-3-tosylacrylonitrile was analysed with HPLC-DAD. For sample pre-treatment, an approximately 1.45 mg/ml solution of (E)-3-tosylacrylonitrile was prepared in acetonitrile and the solution was analysed by HPLC. Quantification was performed using external (ESTD) calibration with authentic standards. Results from the initial tests with propylene carbonate, ethanol, dimethylsulfoxide, 35% ethanol-65% propylene glycol, and water are presented in FIG. 1.

A short description of series [2]: Long-time stability in propylene carbonate (second round of tests, HPLC-DAD). The class given is physicochemical. As to the method: The amount of (E)-3-tosylacrylonitrile was analysed with HPLC-DAD. For sample pre-treatment, an approximately 1.45 mg/ml solution of (E)-3-tosylacrylonitrile was prepared in acetonitrile and the solution was analysed by HPLC. Quantification was performed using external (ESTD) calibration with authentic standards. After the initial tests, a second round of tests were conducted with propylene carbonate. The stability of (E)-3-tosylacrylonitrile in propylene carbonate was tested at 10 mg/ml and 50 mg/ml concentrations and at different temperatures. The effect of light on the stability was also examined (FIGS. 2 and 3).

With `Cc1ccc(S(=O)(=O)/C=C/C#N)cc1` [(E)-3-tosylacrylonitrile], in series [1] (propylene carbonate), the “dissolving in propylene carbonate” value is listed as “dissolved immediately” and the “stability in propylene carbonate (short-term)” value was “stable for at least one month”. In series [1] (most tested solvents (ethanol, DMSO, 35% ethanol-65% propylene glycol, water pH 4, water pH 8)), the “dissolving in the tested solvent” value is listed as “did not dissolve thoroughly in the tested solvent or dissolving continued for several days”. For the same molecule, the “final concentration of (E)-3-tosylacrylonitrile after 6 months” value in series [2] (10 mg/ml and 50 mg/ml, all tested conditions (different temperatures, light), 6 months) is given as “above 90%”. Moreover, the “degradation in propylene carbonate” value in series [2] (10 and 50 mg/ml) is listed as “slow”. The “stability in propylene carbonate” value in series [2] (10 and 50 mg/ml, different temperatures, light) is listed as “good even in harsh conditions”.
